Data set [1] in a line: Hypnotic activity (method of JANSEN). The format is in vivo, mice. Particulars: 95% confidence interval (FINNEY); for ED50: Mus musculus, ip, read-out: 50% hypnotic dose (confidence interval). The protocol:
The hypnotic activity of the compounds of the present invention was assessed by the method of JANSEN (J. Med. Pharm. Chem., 1959, 1, 281).
After treatment i.p., each mouse is carefully placed on its back. […] In each batch (10 mice per dose), the percentage of sleeping animals is noted. The 50% hypnotic dose and its 95% confidence interval were calculated according to FINNEY's (1971) method.

A short description of data set [2]: Hypnotic activity (method of JANSEN). The format is in vivo, mice. Particulars: 95% confidence interval (FINNEY); for 50% hypnotic dose (confidence interval): i.v.; for ED50: Mus musculus, iv, read-out: 50% hypnotic dose (confidence interval).
The target of a further data set is benzodiazepine receptors. Put plainly: Affinity for benzodiazepine receptors: inhibition of specific binding of [3H]flunitrazepam (WASTEK et al., modified). More on the design: species or system rats. Particulars: 50% inhibition of specific binding of [3H]flunitrazepam, rat brain membranes. On the procedure:
This study was performed according to the technique of WASTEK et al., (Europ. J. Pharmacol., 1978, 50, 445-447) slightly modified.
Rats are sacrificed by decapitation, and the brain is removed, ground, suspended, centrifuged and resuspended.
Samples of this suspension are incubated in the presence of [^3 H]flunitrazepam, alone or in the presence of increasing concentrations of the test compound.
The radioactivity bound on the membranes is then determined by liquid scintillation.
The concentration of product which 50% inhibits the specific binding of [^3 H]flunitrazepam (IC50) is thereby determined.

The test system of the next data set is pentetrazole seizures. Briefly: Anticonvulsant activity: protection against pentetrazole seizures (EVERETT and RICHARDS). The data set is classed as in vivo, mice. Particulars: Mus musculus, po, 0.5 h, pentetrazole 125 mg/kg subcutaneously, no tonic seizures during 30 minutes, 95% confidence limits (FINNEY), read-out: ED50 (Confidence interval). On the procedure:
The protective effect produced by the compound of the inventon against pentetrazole seizures was studied.
This test was carried out according to the method of EVERETT and RICHARDS (J. Pharm. Exp. Ther., 1944, 81, 402-407). The test products and reference products were administered orally (suspended in gum arabic) to batches of 10 mice, 30 minutes […] pentetrazole (125 mg/kg subcutaneously).

A further data set concerns food neophobia. Briefly: Anxiolytic activity: food neophobia test. The format is in vivo, mice. Particulars: 30 minutes after treatment. The protocol: This activity was studied by the food neophobia test. In effect, a pronounced inhibition of the feed intake can be obtained in mice when both the food and the enclosure are unfamiliar to the aninal (R. J. STEPHENS, Brit. J. Pharmacol., 1973, 47, 145 P). All anxiolytics specifically counteract neophobia phenomena.
30 minutes after oral or subcutaneous treatment with the test derivatives and the reference products, the mice, fasted for 16 to 20 hours, are isolated in a translucent enclosure and placed in the presence of an unfamiliar food for 5 minutes.
The amounts consumed are evaluated in proportion to the weight of the animal.
In each batch, the mean consumption and also the percentage variation relative to the control batch are calculated in this manner.

Data set [3] in a line: Acute toxicity in mice (oral). Particulars: mouse, in vivo, oral administration. From the text: The acute, chronic, sub-chronic and delayed toxicities were dealt with in this study. Performed on various animal species, the trials brought out the low toxicity and good tolerability of the derivatives of the invention.

27 compounds from US4788188A, “Quinolylglycinamide derivatives, the process for preparation thereof and their therapeutic application as psychotropic drugs” (Sanofi (S.A.), priority 1985, dated 1988) can be followed below.

Broadly, the IC50 is the midpoint of a concentration-inhibition curve. The low end stands for greater potency in that assay, the high end for weaker potency in that assay. Usually LD50 stands for the dose at which mortality reaches 50%.

Read-outs that look alike come from different tables or passages of the source.

Consider `CCCN(CCC)C(=O)CNc1c(C(=O)OCC)cnc2ccc(Cl)cc12` [12 (Phosphate)], for which the ED50 in data set [1] was determined as 38 mg/kg. Besides, the “50% hypnotic dose (confidence interval)” value in data set [2] was 2 (1-4) mg/kg.

With `CCCN(CCC)C(=O)CNc1c(C(=O)OCC)cnc2ccc(Cl)cc12` [12 (Sulphate)], the “50% hypnotic dose (confidence interval)” value in data set [1] (i.p.) was 30 (14-39) mg/kg; in data set [2] it was 6 (4-15) mg/kg.

Compound `CNC1=Nc2ccc(Cl)cc2C(c2ccccc2)=[N+]([O-])C1` [Chlordiazepoxide, chlordiazepoxide, reference compound] registered an IC50 on benzodiazepine receptors of 950 nM. In addition, the ED50 with pentetrazole seizures was determined as 7 mg/kg. Besides, the “Percentage increase (food consumption relative to control batch)” value in the data set on food neophobia (dose 16 mg/kg, PO) is 73%.

In turn, `CCOC(=O)c1cnc2ccc(Cl)cc2c1NCC(=O)N(CC)CC` [Derivative 1, 2-(3-Ethoxycarbonyl-6-chloro-4-quinolyl)amino-N,N-diethylacetamide] registered an LD50 in data set [3] of 1800 mg/kg. Further, the IC50 on benzodiazepine receptors was 85 nM. In addition, in the data set on pentetrazole seizures, the ED50 is 49 mg/kg.

The compound `CCOC(=O)c1cnc2ccc(C(F)(F)F)cc2c1NCC(=O)N(CC)CC` [Derivative 4, 2-(3-Ethoxycarbonyl-6-trifluoromethyl-4-quinolyl)amino-N,N-diethylacetamide] showed an IC50 on benzodiazepine receptors of 97 nM. Further, the ED50 stood at 27 mg/kg in data set [1] and 5 mg/kg in data set [2].

The compound `CCOC(=O)c1cnc2ccc([N+](=O)[O-])cc2c1NCC(=O)N(CC)CC` [Derivative 5, 2-(3-Ethoxycarbonyl-6-nitro-4-quinolyl)amino-N,N-diethylacetamide] gave an IC50 on benzodiazepine receptors of 97 nM. The values for the ED50 (in the data set with pentetrazole seizures; in data set [1]; in data set [2]) were 50 mg/kg, 25 mg/kg and 9 mg/kg, respectively.

`CCOC(=O)c1cnc2ccc(OCC)cc2c1NCC(=O)N(CC)CC` [Derivative 8]: the IC50 at benzodiazepine receptors was 133 nM. In addition, the values for the ED50 in data set [1] and in data set [2] were 18 mg/kg and 5 mg/kg, respectively.

Compound `CCOC(=O)c1cnc2ccccc2c1NCC(=O)N(CC)CC` [Derivative 10, 2-(3-Ethoxycarbonyl-4-quinolyl)amino-N,N-diethylacetamide] gave an IC50 on benzodiazepine receptors of 1560 nM. Besides, the ED50 in the data set on pentetrazole seizures worked out at 68 mg/kg.

For `CCCN(CCC)C(=O)CNc1c(C(=O)OCC)cnc2ccc(Cl)cc12` [Derivative 12, 2-(3-Ethoxycarbonyl-6-chloro-4-quinolyl)amino-N,N-dipropylacetamide], the IC50 at benzodiazepine receptors was 16 nM. In addition, in the data set with pentetrazole seizures, the ED50 stood at 10 mg/kg. For the same compound, in the data set with food neophobia (dose 32 mg/kg, PO), the “Percentage increase (food consumption relative to control batch)” value is listed as 75%.

For the compound `CCCN(CCC)C(=O)CNc1c(C(=O)OCC)cnc2ccc(C)cc12.Cl` [Derivative 13, 2-(3-Ethoxycarbonyl-6-methyl-4-quinolyl)amino-N,N-dipropylacetamide hydrochloride], the IC50 on benzodiazepine receptors is 25 nM. The ED50 in the data set on pentetrazole seizures turned out to be 25 mg/kg. In the data set with food neophobia (dose 16 mg/kg, PO), the “Percentage increase (food consumption relative to control batch)” value is reported as 75%.

Turning to `CCCN(CCC)C(=O)CNc1c(C(=O)OCC)cnc2ccc(OC)cc12` [Derivative 14, 2-(3-Ethoxycarbonyl-6-methoxy-4-quinolyl)amino-N,N-dipropylacetamide], the IC50 at benzodiazepine receptors came to 17 nM. Besides, the ED50 is 40 mg/kg in the data set on pentetrazole seizures, 25 mg/kg in data set [1] and 5 mg/kg in data set [2].

`CCCN(CCC)C(=O)CNc1c(C(=O)OCC)cnc2ccc(Br)cc12` [Derivative 17, 2-(3-Ethoxycarbonyl-6-bromo-4-quinolyl)amino-N,N-dipropylacetamide] registered an IC50 on benzodiazepine receptors of 8 nM. Also, the ED50 in the data set on pentetrazole seizures was 18 mg/kg. Moreover, the “Percentage increase (food consumption relative to control batch)” value with food neophobia (dose 32 mg/kg, SC) came to 75%.

On benzodiazepine receptors, `CCOC(=O)c1cnc2ccc(Cl)cc2c1NCC(=O)N1CCCCC1` [Derivative 25, 1-{2-[(3-Ethoxycarbonyl-6-chloro-4-quinolyl)amino]acetyl}piperidine] came in with an IC50 of 148 nM. Further, in the data set on pentetrazole seizures, the ED50 came to 33 mg/kg.

The compound `CCOC(=O)c1cnc2ccc(Cl)cc2c1NCC(=O)N1CCCC1` [Derivative 26, 1-{2-[(3-Ethoxycarbonyl-6-chloro-4-quinolyl)amino]acetyl}pyrrolidine] displayed an IC50 at benzodiazepine receptors of 333 nM. Also, the ED50 in the data set on pentetrazole seizures was found to be 50 mg/kg.

For the compound `CCOC(=O)c1cnc2ccc(Cl)cc2c1NCC(=O)N(C)C` [Derivative 29, 2-(3-Ethoxycarbonyl-6-chloro-4-quinolyl)amino-N,N-dimethylacetamide], on benzodiazepine receptors, the IC50 came out at 687 nM. Besides, the ED50 with pentetrazole seizures came to 38 mg/kg.

`CCOC(=O)c1cnc2ccc(OCC)cc2c1NCC(=O)N1CCCCC1` [Derivative 33, 1-{2-[(3-Ethoxycarbonyl-6-ethoxy-4-quinolyl)amino]acetyl}piperidine] had an IC50 at benzodiazepine receptors of 54 nM. The ED50 in data set [1] was determined as 15 mg/kg; in data set [2] it was 5 mg/kg.

`CCOC(=O)c1cnc2ccc(Cl)cc2c1NCC(=O)N1CCCC(C)C1` (stereo not drawn) [Derivative 38, 1-{2-[(3-Ethoxycarbonyl-6-chloro-4-quinolyl)amino]acetyl}-3-methylpiperidine] came in with an IC50 on benzodiazepine receptors of 65 nM. In addition, the ED50 came to 46 mg/kg with pentetrazole seizures, 28 mg/kg in data set [1] and 9 mg/kg in data set [2].

At benzodiazepine receptors, `CCOC(=O)c1cnc2ccc(Cl)cc2c1NCC(=O)NC` [Derivative 41, 2-(3-Ethoxycarbonyl-6-chloro-4-quinolyl)amino-N-methylacetamide] displayed an IC50 of 440 nM. Also, the ED50 in the data set with pentetrazole seizures is 46 mg/kg.

In data set [3], `CCN(CC)C(=O)CNc1c(C(=O)O)cnc2ccc(Cl)cc12` [Derivative 43, 2-(3-Carboxy-6-chloro-4-quinolyl)amino-N,N-diethylacetamide] displayed an LD50 of 2200 mg/kg. In addition, the IC50 on benzodiazepine receptors is 7 nM. For the same compound, in the data set with food neophobia (dose 64 mg/kg, SC), the “Percentage increase (food consumption relative to control batch)” value was 75%.

Compound `CCN(CC)C(=O)CNc1c(C(=O)O)cnc2ccc(C)cc12` [Derivative 44, 2-(3-Carboxy-6-methyl-4-quinolyl)amino-N,N-diethylacetamide] registered an IC50 at benzodiazepine receptors of 46 nM. Further, the “Percentage increase (food consumption relative to control batch)” value with food neophobia (dose 32 mg/kg, SC) amounted to 50%.

In the case of `CCCN(CCC)C(=O)CNc1c(C(=O)O)cnc2ccc(Cl)cc12` [Derivative 46, 2-(3-Carboxy-6-chloro-4-quinolyl)amino-N,N-dipropylacetamide], the IC50 at benzodiazepine receptors is 1 nM. Also, the “Percentage increase (food consumption relative to control batch)” value with food neophobia (dose 16 mg/kg, SC) was 75%.

At benzodiazepine receptors, `CCCCOC(=O)c1cnc2ccc(Cl)cc2c1NCC(=O)N(CC)CC` [Derivative 49, 2-(3-Butoxycarbonyl-6-chloro-4-quinolyl)amino-N,N-diethylacetamide] displayed an IC50 of 61 nM. Moreover, the ED50 with pentetrazole seizures was 54 mg/kg.

In turn, `CCCN(CCC)C(=O)CN(C)c1c(C(=O)OCc2ccccc2)cnc2ccc(Cl)cc12` [Derivative 52, [N'-(3-Benzyloxycarbonyl-6-chloro-4-quinolyl)-N'-methylamino]-N,N-dipropylacetamide] yielded an IC50 on benzodiazepine receptors of 727 nM. Moreover, the ED50 in the data set with pentetrazole seizures turned out to be 31 mg/kg.

As for `CCOC(=O)c1cnc2ccc(Cl)cc2c1N(C)CC(=O)N(CC)CC` [Derivative 58, [N'-(3-Ethoxycarbonyl-6-chloro-4-quinolyl)-N'-methylamino]-N,N-diethylacetamide], in the data set with pentetrazole seizures, the ED50 was 44 mg/kg. For the same compound, in the data set on food neophobia (dose 64 mg/kg, SC), the “Percentage increase (food consumption relative to control batch)” value amounted to 80%.

As to `CCCN(CCC)C(=O)CN(C)c1c(C(=O)OCC)cnc2ccc(Cl)cc12` [Derivative 59, [N'-(3-Ethoxycarbonyl-6-chloro-4-quinolyl)-N'-methylamino]-N,N-dipropylacetamide], in the data set with pentetrazole seizures, the ED50 was determined as 16 mg/kg. Further, the “Percentage increase (food consumption relative to control batch)” value with food neophobia (dose 32 mg/kg, PO) is listed as 146%.

In turn, `CN1C(=O)CN=C(c2ccccc2)c2cc(Cl)ccc21` [Diazepam, diazepam, reference compound] displayed an IC50 on benzodiazepine receptors of 10 nM. In the data set with food neophobia (dose 4 mg/kg, PO), the “Percentage increase (food consumption relative to control batch)” value came to 80%.

Consider `CCCC(C)(COC(N)=O)COC(N)=O` [Meprobamate, reference compound], for which the ED50 with pentetrazole seizures was 36 mg/kg. Also, the “Percentage increase (food consumption relative to control batch)” value in the data set with food neophobia (dose 60 mg/kg, PO) was determined as 95%.
